These results are taken from ChEMBL document CHEMBL4602695, “Discovery and SARs of 5-Chloro-N4-phenyl-N2-(pyridin-2-yl)pyrimidine-2,4-diamine Derivatives as Oral Available and Dual CDK 6 and 9 Inhibitors with Potent Antitumor Activity” (J Med Chem, 2020).

In general, half-life refers to the time in which the quantity being followed falls by half. Higher therefore signals slow loss. As a reminder, the AUC(0-inf) is total exposure, with the tail of the curve extrapolated. A lower AUC(0-inf) goes with low exposure. One may read the Cmax as the peak of the concentration-time curve. What is called IC50 is the midpoint of a concentration-inhibition curve.

Data set [1] concerns MDA-MB-231. The data set can be described thus: Cell cycle arrest in human MDA-MB-231 cells assessed as accumulation at G0/G1 phase at 4 uM measured after 48 hrs by propidium iodide staining based flow cytometry (reference value: 57.65%). The class given is functional. (In flow cytometry, cells or beads pass a laser one at a time.)
Data set [2] deals with MDA-MB-231. Description: Cell cycle arrest in human MDA-MB-231 cells assessed as accumulation at S phase at 8 uM measured after 48 hrs by propidium iodide staining based flow cytometry (reference value: 26.45%). The class given is functional.
Data set [3] has as its system MDA-MB-231. The data set can be described thus: Cell cycle arrest in human MDA-MB-231 cells assessed as accumulation at S phase at 12 uM measured after 48 hrs by propidium iodide staining based flow cytometry (reference value: 26.45%). The class given is functional.
In data set [4] the test system is MDA-MB-231. The data set can be described thus: Induction of apoptosis in human MDA-MB-231 cells assessed as viable cells at 12 uM measured after 48 hrs by Annexin V-FITC/propidium iodide staining based flow cytometry (95.8%). As to conditions: MDA-MB-231, 48 h, read-out: Activity. The class given is functional.
In data set [5] the test system is MDA-MB-231. The data set can be described thus: Induction of apoptosis in human MDA-MB-231 cells assessed as necrotic cells at 12 uM measured after 48 hrs by Annexin V-FITC/propidium iodide staining based flow cytometry (0.498%). The format is functional.
Data set [6] can be described thus: Stability in human hepatocytes assessed as parent compound remaining after 120 mins by LC-MS/MS analysis. The class given is ADME, cell-based, Hepatocyte. As to conditions: read-out: Stability.
The nature of data set [7]: Half life in mouse hepatocytes by LC-MS/MS analysis. The class given is ADME, cell-based, Hepatocyte.
Data set [8] is described as follows: Clearance in mouse hepatocytes assessed per million cells by LC-MS/MS analysis. The class given is ADME, cell-based, Hepatocyte. As to conditions: read-out: CLH.
Data set [9] can be described thus: Half life in Sprague-Dawley rat at 2 mg/kg, iv by LC-MS/MS analysis. The class given is ADME, organism-based. The note with it: in vivo.
Data set [10] can be described thus: AUC (0 to infinity) in Sprague-Dawley rat at 2 mg/kg, iv by LC-MS/MS analysis. The note with it: in vivo. The class given is ADME, organism-based. Also noted: dose 2 mg/kg, route intravenous, time infinity.
Data set [11] in a line: Half life in Sprague-Dawley rat at 10 mg/kg, po by LC-MS/MS analysis. The format is ADME, organism-based. As to conditions: in vivo.
A short description of data set [12]: Cmax in Sprague-Dawley rat at 10 mg/kg, po by LC-MS/MS analysis. The format is ADME, organism-based. The arrangement: dose 10 mg/kg, route oral. As to conditions: in vivo.
Data set [13] deals with CDK9/Cyclin K (Homo sapiens, UniProt P50750). Description: biochemical.
CDK9/Cyclin K, sequence (P50750 whole entry): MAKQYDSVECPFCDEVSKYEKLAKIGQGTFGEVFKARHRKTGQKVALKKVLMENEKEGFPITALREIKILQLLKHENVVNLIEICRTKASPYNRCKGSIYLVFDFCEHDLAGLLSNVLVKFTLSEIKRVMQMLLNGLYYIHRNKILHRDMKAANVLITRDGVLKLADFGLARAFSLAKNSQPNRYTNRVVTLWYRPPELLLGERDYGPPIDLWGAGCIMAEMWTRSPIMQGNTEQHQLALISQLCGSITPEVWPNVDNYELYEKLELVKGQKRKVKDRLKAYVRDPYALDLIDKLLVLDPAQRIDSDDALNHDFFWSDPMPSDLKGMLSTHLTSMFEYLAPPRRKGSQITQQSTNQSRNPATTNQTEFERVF
CDK9/Cyclin K, sequence (O75909 whole entry, further chain): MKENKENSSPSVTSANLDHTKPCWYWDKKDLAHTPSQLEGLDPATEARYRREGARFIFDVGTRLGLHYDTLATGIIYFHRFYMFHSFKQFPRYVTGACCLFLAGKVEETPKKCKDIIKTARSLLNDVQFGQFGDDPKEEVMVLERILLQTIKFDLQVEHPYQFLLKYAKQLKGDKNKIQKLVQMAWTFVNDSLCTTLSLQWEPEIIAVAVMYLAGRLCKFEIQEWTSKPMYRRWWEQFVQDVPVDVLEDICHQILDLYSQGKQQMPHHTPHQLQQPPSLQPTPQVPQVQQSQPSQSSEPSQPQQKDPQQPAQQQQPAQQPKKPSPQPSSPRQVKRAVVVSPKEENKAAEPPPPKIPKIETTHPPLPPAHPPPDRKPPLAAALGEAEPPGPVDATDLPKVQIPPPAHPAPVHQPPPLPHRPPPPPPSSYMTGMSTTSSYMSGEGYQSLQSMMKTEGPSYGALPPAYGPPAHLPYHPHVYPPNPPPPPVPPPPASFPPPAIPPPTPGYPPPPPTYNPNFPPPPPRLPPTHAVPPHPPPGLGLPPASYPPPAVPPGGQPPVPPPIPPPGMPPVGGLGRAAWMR

Take `CC(=O)Nc1cccc(Nc2nc(Nc3ccc(N4CCN(C)CC4)cn3)ncc2Cl)c1`: the Activity in data set [1] was 71.85%; in [2] it was 14.36%; in data set [3], 15.23%; in [5], 2.24%. In addition, the viability at 12 µM in [4] turned out to be 54.9%. In addition, the remaining at 2 h in data set [6] was determined as 40.4%. Besides, the values for the half-life in data set [7], in [9] and in data set [11] were 39.2 min, 106 min and 194 min, respectively. In data set [8], the hepatocyte CLint was determined as 17.7 µL/min/1e6 cells. Moreover, the AUC(0-inf) in [10] was found to be 641 ng·h/mL. In data set [12], this compound gave a Cmax of 101 ng/mL. The compound also came in with an IC50 in data set [13] of 39.5 nM.
